The target of this assay is T1, human Bradykinin B1 receptor (Homo sapiens, UniProt P46663).
T1 construct: host or cells: CHO-K1
T1 sequence (P46663 1-353): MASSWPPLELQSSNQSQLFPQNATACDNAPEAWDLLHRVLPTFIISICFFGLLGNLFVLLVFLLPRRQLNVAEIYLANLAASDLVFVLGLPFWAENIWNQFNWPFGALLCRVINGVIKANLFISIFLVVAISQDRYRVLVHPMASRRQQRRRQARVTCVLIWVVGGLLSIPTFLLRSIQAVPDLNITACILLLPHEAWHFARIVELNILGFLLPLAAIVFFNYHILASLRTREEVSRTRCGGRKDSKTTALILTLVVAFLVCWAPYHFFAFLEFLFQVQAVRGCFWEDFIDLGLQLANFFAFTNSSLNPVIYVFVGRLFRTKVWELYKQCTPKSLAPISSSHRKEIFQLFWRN
The assay is described as follows: Calcium flux Assay (FLIPR) with cells expressing human Bradykinin B1 receptor (hB1). It counts as cell-based. The conditions noted are these: absence of 0.1% BSA in assay buffer; CHO-K1 cell line expressing human B1 receptor; agonist Lys-(Des-Arg)-Bradykinin; read-out: hB1 free IC50. As for the experimental part: The potency to inhibit the Bradykinin B1 receptor was determined for the compound examples of this invention in a cell-based fluorescent calcium-mobilisation assay. The assay measures the ability of compound examples to inhibit Bradykinin B1 receptor agonist-induced increase of intracellular free Ca^2+ in the cell line expressing Bradykinin B1 receptor. Specifically, calcium indicator-loaded cells are pre-incubated in the absence or presence of different concentrations of compound examples followed by the stimulation with a selective Bradykinin B1 receptor agonist peptide. The change of the intracellular Ca^2+ concentration is monitored with a fluorescent plate reader FLIPR^TETRA®
Calcium flux Assays (FLIPR) with cells expressing human Bradykinin B1 receptor (hB1) Calcium flux Assay (FLIPR) with recombinant cells for Bradykinin B1 receptor antagonist, either in the presence (hB1 IC50) or absence (hB1 free IC50) of 0.1% Bovine Serum Albumin (BSA) in assay buffer.
CHO—K1 cell line expressing human B1 receptor was purchased from Euroscreen (Gosselies, Belgium, with reference name hB1-D1). The cells were grown in Nutrient Mixture Ham's F12 (Sigma) containing 10% Foetal bovine serum (Sigma) and 400 μg/mL G418 (Sigma), 5 μg/mL puromycin (Sigma).
For the calcium flux assay, 80% confluent cells were detached from the culture vessels with Versene (Gibco), and seeded into 384-well plates (Cell binding Surface; Corning, N.Y.; #3683) at a density of 15,000 cells per well. Cells were seeded in a volume of 50 μL in medium without antibiotics and incubated overnight in a humidified atmosphere with 5% CO2 at 37° C. […] The calcium indicator loaded cells were incubated at 37° C. for 2 hrs. Extracellular dye was then removed and each well was filled with 45 μL of assay buffer. Cell plates were kept in dark until used. Example compounds were assayed at 8 concentrations in triplicate. Serial 10-fold dilutions in 100% DMSO were made at a 100-times higher concentration than the final concentration, and then diluted 1:10 in assay buffer. 5 μL of each diluted compound was added to the well of cell plates (yielding final concentration with 1% DMSO), and incubated for 30 min at 28° C. before the addition of B1 receptor agonist on the FLIPR instrument.
Agonist plates contained the agonist Lys-(Des-Arg)-Bradykinin (Bachem, Brackley) at 3.5×EC90 in assay buffer with 1% DMSO. The addition of agonist 20 μl per well to the assay plate was carried out on the FLIPR instrument while continuously monitoring Ca^2+-dependent fluorescence at 538 nm. A peptide antagonist Lys-(Des-Arg-Leu)-Bradykinin (Bachem, Brackley) at 20 μM was used to determine the full inhibition as control.
Peak fluorescence was used to determine the response to agonist obtained at each concentration of example compound by the following equation:
% Response=100*(RFU(example compound)−RFU(control))/(RFU(DMSO)−RFU(control)) • RFU means relative fluorescence units. • Control means full inhibition by the peptide antagonist Lys-(Des-Arg-Leu)-Bradykinin at 20
The response values were plotted against the logarithm of the example compound concentrations. The example compounds were tested in triplicates per plate and mean values were plotted in Excel XLfit to determine IC50 values, percentage of maximal inhibition and the Hill slopes.
IC50 values of example compounds in Calcium flux Assay (FLIPR) as shown in table 1 were determined according to the protocol described above in the absence of 0.1% BSA in assay buffer.
`CCC(C)N(C)C(=O)c1ccc(NC(=O)C2(c3ccc(C(F)(F)F)cc3F)CC2)cc1-c1nnn[nH]1` (single isomer, unassigned) [Example 58, N-sec-butyl-4-[({1-[2-fluoro-4-(trifluoromethyl)phenyl]cyclopropyl}carbonyl)-amino]-N-methyl-2-(1H-tetrazol-5-yl)benzamide]: the IC50 was 1850 nM.

As to `CCC(C)OC(=O)c1ccc(NC(=O)C2(c3ccc(C)cc3F)CC2)cc1-c1nnn[nH]1` (racemic) [Example 9, sec-Butyl 4-({[1-(2-fluoro-4-methylphenyl)cycloporopyl]carbonyl}amino)-2-(1H-tetrazol-5-yl)benzoate], the concentration for half-maximal inhibition (IC50) came to 17 nM.

As for `COC1CCCN(C(=O)c2ccc(NC(=O)C3(c4ccc(C(F)(F)F)cc4F)CC3)cc2-c2nnn[nH]2)C1` (racemic) [Example 35, 1-[2-Fluoro-4-(trifluoromethyl)phenyl]-N-{4-[(3-methoxypiperidin-1-yl)carbonyl]-3-(1H-tetrazol-5-yl)phenyl}cyclopropanecarboxamide], the IC50 was determined as 341 nM.

`Cc1ccc(NC(=O)c2ccc(NC(=O)C3(c4ccc(C(F)(F)F)cc4F)CC3)cc2-c2nnn[nH]2)cn1` [Example 57, 4-[({1-[2-Fluoro-4-(trifluoromethyl)phenyl]cyclopropyl}carbonyl)amino]-N-(6-methylpyridin-3-yl)-2-(1H-tetrazol-5-yl)benzamide]: the half-maximal inhibitory concentration (IC50) is 29 nM.

For the molecule `CN(C(=O)c1ccc(NC(=O)C2(c3cccc(Cl)c3)CC2)cc1-c1nnn[nH]1)C1CCCC1` [Example 40, 4-({[1-(3-Chlorophenyl)cyclopropyl]carbonyl}amino)-N-cylcopentyl-N-methyl-2-(1H-tetrazol-5-yl)benzamide], the IC50 is 1240 nM.

With `CN(C(=O)c1ccc(NC(=O)C2(c3cccc(Cl)c3)CC2)cc1-c1nnn[nH]1)C1CCOCC1` [Example 46, 4-({[1-(3-Chlorophenyl)cyclopropyl]carbonyl}amino)-N-methyl-N-(tetrahydro-2H-pyran-4-yl)-2-(1H-tetrazol-5-yl)benzamide], the IC50 turned out to be 3300 nM.

`O=C(c1ccc(NC(=O)C2(c3ccc(C(F)(F)F)cc3F)CC2)cc1-c1nnn[nH]1)N1CCCCC1` [Example 34, 1-[2-Fluoro-4-(trifluoromethyl)phenyl]-N-[4-(piperidin-1-ylcarbonyl)-3-(1H-tetrazol-5-yl)phenyl]cyclopropanecarboxamide]: the half-maximal inhibitory concentration (IC50) was found to be 70 nM.

Take `CC(C)COC(=O)c1ccc(NC(=O)C2(c3ccc(C(F)(F)F)cc3F)CC2)cc1-c1nnn[nH]1` [Example 28, Isobutyl 4-[({1-[2-fluoro-4-(trifluoromethyl)phenyl]cyclopropyl}carbonyl)amino]-2-(1H-tetrazol-5-yl)benzoate]: the IC50 came out at 3 nM.

In the case of `CCOC(=O)c1c(C)cc(NC(=O)C2(c3ccc(C(F)(F)F)cc3F)CC2)cc1-c1nnn[nH]1` [Example 60, Ethyl 4-[({1-[2-fluoro-4-(trifluoromethyl)phenyl]cyclopropyl}carbonyl)amino]-2-methyl-6-(1H-tetrazol-5-yl)benzoate], the IC50 amounted to 26 nM.

For `O=C(OC1CCCC1)c1ccc(NC(=O)C2(c3ccc(F)c(F)c3)CC2)cc1-c1nnn[nH]1` [Example 4, Cyclopentyl 4-({[1-(3,4-difluorophenyl)cyclopropyl]carbonyl}amino)-2-(1H-tetrazol-5-yl)benzoate], the 50% inhibitory concentration (IC50) stood at 59 nM.

As to `Cc1ccc(C2(C(=O)Nc3ccc(C(=O)OC4CCCC4)c(-c4nnn[nH]4)c3)CC2)c(F)c1` [Example 5, Cyclopentyl 4-({[1-(2-fluoro-4-methylphenyl)cyclopropyl]carbonyl}amino)-2-(1H-tetrazol-5-yl)benzoate], the IC50 was found to be 25 nM.

On to `CC[C@@H](C)OC(=O)c1ccc(NC(=O)C2(c3ccc(C(F)(F)F)cc3F)CC2)cc1-c1nnn[nH]1` [Example 24, (2R)-Butan-2-yl 4-[({1-[2-fluoro-4-(trifluoromethyl)phenyl]cycloproyl}carbonyl)amino]-2-(1H-tetrazol-5-yl)benzoate], for which the concentration for half-maximal inhibition (IC50) worked out at 2 nM.

In the case of `CC(C)(C)COC(=O)c1ccc(NC(=O)C2(c3ccc(C(F)(F)F)cc3F)CC2)cc1-c1nnn[nH]1` [Example 29, 2,2-Dimethylpropyl 4-[({1-[2-fluoro-4-(trifluoromethyl)phenyl]cyclopropyl}carbonyl)amino]-2-(1H-tetrazol-5-yl)benzoate], the IC50 came to 6 nM.

Turning to `Cc1ccc(NC(=O)c2c(C)cc(NC(=O)C3(c4ccc(C(F)(F)F)cc4F)CC3)cc2-c2nnn[nH]2)nc1` [Example 66, 4-[({1-[2-fluroo-4-(trifluoromethyl)phenyl]cyclopropyl}carbonyl)amino]-2-methyl-N-(5-methylpyridin-2-yl)-6-(1H-tetrazol-5-yl)benzamide], the IC50 came to 1450 nM.

Regarding `O=C(OC1CCC1)c1ccc(NC(=O)C2(c3ccc(C(F)(F)F)cc3F)CC2)cc1-c1nnn[nH]1` [Example 30, Cyclobutyl 4-[({1-[2-fluoro-4-(trifluoromethyl)phenyl]cyclopropyl}carbonyl)amino]-2-(1H-tetrazol-5-yl)benzoate], the half-maximal inhibitory concentration (IC50) worked out at 2 nM.

In the case of `O=C(OC1CCOCC1)c1ccc(NC(=O)C2(c3ccc(C(F)(F)F)cc3F)CC2)cc1-c1nnn[nH]1` [Example 21, Tetrahydro-2H-pyran-4-yl 4-[({1-[2-fluoro-4-(trifluoromethyl)phenyl]cyclopropyl}carbonyl)amino]-2-(1H-tetrazol-5-yl)benzoate], the half-maximal inhibitory concentration (IC50) is 22 nM.

On to `O=C(O[C@H]1CCOC1)c1c(F)cc(NC(=O)C2(c3ccc(C(F)(F)F)cc3F)CC2)cc1-c1nnn[nH]1` [Example 62, (3S)-tetrahydrofuran-3-yl 2-fluoro-4-[({1-[2-fluoro-4-(trifluoromethyl)phenyl]cyclopropyl}carbonyl)amino]-6-(1H-tetrazol-5-yl)benzoate], for which the IC50 stood at 2 nM.

For the molecule `COCCOC(=O)c1ccc(NC(=O)C2(c3ccc(C(F)(F)F)cc3F)CC2)cc1-c1nnn[nH]1` [Example 17, 2-Methoxyethyl 4-[({1-[2-fluoro-4-(trifluoromethyl)phenyl]cyclopropyl}-carbonyl)amino]-2-(1H-tetrazol-5-yl)benzoate], the IC50 is 17 nM.

In the case of `CN(C(=O)c1ccc(NC(=O)C2(c3ccc(C(F)(F)F)cc3F)CC2)cc1-c1nnn[nH]1)C1CCCC1` [Example 41, N-cyclopentyl-4-[({1-[2-fluoro-4-(trifluoromethyl)phenyl]cyclopropyl}carbonyl)amino]-N-methyl-2-(1H-tetrazol-5-yl)benzamide], the IC50 stood at 205 nM.

For the molecule `Cc1cccc([C@@H]2C[C@H]2C(=O)Nc2ccc(C(=O)OC3CCCC3)c(-c3nnn[nH]3)c2)c1` (racemic) [Example 13, Cyclopentyl-4-({[2-(3-methylphenyl)cyclopropyl]carbonyl}amino)-2-(1H-tetrazol-5-yl)benzoate], the IC50 was determined as 47 nM.

Turning to `CN1CCC(OC(=O)c2ccc(NC(=O)C3(c4ccc(C(F)(F)F)cc4F)CC3)cc2-c2nnn[nH]2)CC1` [Example 23, 1-Methylpiperidin-4-yl 4-[({1-[2-fluoro-4-(trifluoromethyl)phenyl]cyclopropyl}carbonyl)amino]-2-(1H-tetrazol-5-yl)benzoate], the IC50 was determined as 319 nM.

The values above are taken from patent publication US20190177284A1, “TETRAZOLYL-CONTAINING CYCLOPROPANECARBOXAMIDES” (Bayer Pharma Aktiengesellschaft, priority 2017, published 2019).
